Experimental data taken from paper PMC8504577, “Evaluation of a Clinically Relevant Drug–Drug Interaction Between Rosuvastatin and Clopidogrel and the Risk of Hepatotoxicity” (Frontiers in Pharmacology, 2021).
“Also recorded” adds a separate entry of the source. Read-outs that look alike come from different tables or passages of the source.

Tests used:
[1] = cited from earlier work; for I1, peak plasma concentration at steady state: ref Itkonen et al. (2015)
[2] = target: T1, OATP1B3 (Homo sapiens, UniProt Q9NPD5); experiment: cell-based
T1 sequence (Q9NPD5 1-702): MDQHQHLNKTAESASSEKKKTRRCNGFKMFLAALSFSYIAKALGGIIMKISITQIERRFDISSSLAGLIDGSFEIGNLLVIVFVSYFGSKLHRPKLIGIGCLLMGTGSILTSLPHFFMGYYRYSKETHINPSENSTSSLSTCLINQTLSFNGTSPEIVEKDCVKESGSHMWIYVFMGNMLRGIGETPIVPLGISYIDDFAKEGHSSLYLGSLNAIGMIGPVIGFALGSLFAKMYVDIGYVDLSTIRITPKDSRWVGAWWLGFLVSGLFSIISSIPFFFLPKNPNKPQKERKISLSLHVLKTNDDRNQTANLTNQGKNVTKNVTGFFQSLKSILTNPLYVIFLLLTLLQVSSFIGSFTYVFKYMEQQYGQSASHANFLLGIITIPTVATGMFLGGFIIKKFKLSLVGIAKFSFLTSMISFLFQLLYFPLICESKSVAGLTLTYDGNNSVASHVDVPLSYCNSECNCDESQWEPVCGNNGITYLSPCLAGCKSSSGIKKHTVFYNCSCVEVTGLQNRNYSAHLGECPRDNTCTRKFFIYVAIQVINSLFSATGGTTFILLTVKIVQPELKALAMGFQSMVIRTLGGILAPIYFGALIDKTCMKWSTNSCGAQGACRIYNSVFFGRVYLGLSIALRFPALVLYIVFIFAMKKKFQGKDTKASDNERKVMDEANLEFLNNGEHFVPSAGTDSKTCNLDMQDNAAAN
Procedure: The OATP1B1, OATP1B3, and mock cells were cultured in the DMEM medium containing 10% fetal bovine serum, penicillin–streptomycin solution (100 U/mL and 0.1 mg/ml), and 0.5 mg/ml geneticin at 37°C in the presence of 5% CO2. The cells were seeded in a 24-well plate at a density of 4×10^5 cells/well and grown for 80–90% confluence. […] After washing the cells three times with transporter buffer at 4°C, the cells were lysed with liquid nitrogen. The lysates were precipitated with methanol and centrifuged at 12,000 rpm at 4°C for 5 min. The supernatant was analyzed by LC-MS/MS. Protein concentration was determined using the Pierce® BCA Protein Assay Kit. All experiments were performed in triplicate.
Phoenix WinNonlin® 7.1 (Pharsight Corporation, Mountain View, CA, United States) was used to calculate the pharmacokinetic parameters by the noncompartmental method. IC50 values were obtained by a computer-generated nonlinear least squares fit using GraphPad Prism 8.1 (GraphPad Software, San Diego, CA, United States). Statistical analysis was performed using SPSS ver. 22.0 (IBM, Chicago, IL, United States). The results are presented as mean ± S.D., unless otherwise stated. After testing for the homogeneity of variance, statistical analysis was performed with a one-way ANOVA followed by the LSD post hoc test or unpaired Student’s t-test. A probability (p) of less than 0.05, 0.01, and 0.001 was considered to be statistically significant, highly significant, and extremely significant, respectively.

[3] = Cytotoxicity (MTT, AST, LDH) in cryopreserved human hepatocytes; format: cell-based; conditions: human, cryopreserved primary human hepatocytes; 96 h incubation
Procedure: Cytotoxicity was determined with MTT assay in cryopreserved human hepatocytes. Thawing and plating of cryopreserved hepatocytes were carried out according to the manufacturer’s protocol. […] 11 μL of 5 mg/ml MTT was added to each well of the plate, and then the plate was incubated at 37°C for 3–4 h. After the medium was aspirated, 150 μL of DMSO was added to dissolve the formazan. The absorbance at 570 nm was measured and corrected for background absorption at 690 nm using a SpectraMax® i3 plate reader (Molecular Devices, Silicon Valley, CA, United States). AST and LDH levels in the medium of parallel processed plates were measured by commercially available assay kits. […] All experiments were performed in triplicate.

[4] = Hepatobiliary transport study in rats; format: in vivo, Sprague-Dawley rats; conditions: for Tmax / Kp / Cmax / AUC(0-t): Sprague-Dawley, rat; for Tmax / Cmax / AUC(0-t): 5 mg/kg; for Kp: liver/plasma, read-out: Liver AUC0-5min/Plasma AUC0-5min; for AUC(0-t): read-out: Plasma AUC0-5min (converted); for CLint,bile / CLuptake,liver: integration plot method
Procedure: For the hepatobiliary transport study, 24 rats were randomly assigned into eight groups (n = 3, each group, groups V to XII) and they received a p.o. dose as oral gavage of CP (27 mg/kg) for 20 days. The remaining 24 rats were also randomly assigned into eight groups (n = 3, each group, groups XIII to XX) and received the same volume of vehicle control for 20 days. […] On day 21, rats were anesthetized and incised along the abdominal midline, and bile duct intubation was performed prior to drug administration. […] Rats were euthanized at 0.25, 0.47, 0.67, 1, 1.5, 2, 2.5, and 5 min post dose. Arterial blood, bile, and liver samples were collected.
Supplementary Table 2. Pharmacokinetic parameters of hepatobiliary transport study in rats. (n= 3) RSV CLuptake,liver and CLint,bile were calculated by integration plot methods.^[1, 2]

[5] = human, ref Pinheiro et al., 2012, Remsberg et al., 2013, cited from earlier work
[6] = in 5 days after p.o. administration, ref Sanofi-Aventis, 2011
[7] = plasma, iv, i.v. RSV 5 mg/kg, with DDI (multiple p.o. CP 27 mg/kg)
[8] = plasma, iv, i.v. RSV 5 mg/kg, without DDI
[9] = i.v. RSV 5 mg/kg, with DDI (multiple p.o. CP 27 mg/kg)

COC(=O)[C@H](c1ccccc1Cl)N1CCc2sccc2C1 [CP, clopidogrel]
I1, peak plasma concentration at steady state ([1]; 75 mg CP): 0.0010 [Itkonen et al. (2015)] μM
I1, peak plasma concentration at steady state ([1]; 300 mg CP): 0.0089 [Itkonen et al. (2015)] μM
Absorbed CP converted into inactive carboxylic acid metabolites (CPC) by CES1 in the liver ([1]; at least, ref Jiang et al., 2015): 85–90%
Excreted as inactive metabolites via feces [1, 6]: ~46%
Excreted as inactive metabolites via urine [1, 6]: ~50%
CP undergoing two-step oxidization by CYP enzymes to active metabolite ([1]; ref Jiang et al., 2015): About 2%
Elimination half-life ([1]; ref Sanofi-Aventis, 2011): 360 min
IC50 [2]: > 50 µM
Inhibition of OATP1B3-mediated RSV transport ([2]; 1 μM RSV, CPC 0.05–50 μM): did not inhibit; also recorded: did not affect

CC(C)c1nc(N(C)S(C)(=O)=O)nc(-c2ccc(F)cc2)c1/C=C/[C@@H](O)C[C@@H](O)CC(=O)O [RSV, rosuvastatin]
IC50 at 96 h [3]: 14.8 µM
Tmax ([4]; liver, iv, i.v. RSV 5 mg/kg, with DDI (multiple p.o. CP 27 mg/kg), read-out: Liver Tmax (converted)): 1.72 min
Tmax ([4]; liver, iv, i.v. RSV 5 mg/kg, without DDI, read-out: Liver Tmax (converted)): 2 min
Kp ([4]; intravenous, i.v. RSV 5 mg/kg, with DDI (multiple p.o. CP 27 mg/kg)): 1.38 ± 0.13
Kp ([4]; iv, i.v. RSV 5 mg/kg, without DDI): 1.72 ± 0.18
Cmax [4, 7]: 56 ± 9.15 µg/mL
AUC(0-t) [4, 7]: 1710 ng·h/mL
Tmax ([4]; plasma, iv, i.v. RSV 5 mg/kg, with DDI (multiple p.o. CP 27 mg/kg), read-out: Plasma Tmax (converted)): 0.36 min
Cmax [4, 8]: 62.1 ± 24.2 µg/mL
AUC(0-t) [4, 8]: 1190 ng·h/mL
Tmax ([4]; plasma, iv, i.v. RSV 5 mg/kg, without DDI, read-out: Plasma Tmax (converted)): 0.31 min
Bile0-5min (with DDI/without DDI)% ([4]; i.v. RSV 5 mg/kg): 84.95%
Bile0-5min/Liver AUC0-5min (with DDI/without DDI)% ([4]; i.v. RSV 5 mg/kg): 73.81%
CLint,bile (with DDI/without DDI)% ([4]; i.v. RSV 5 mg/kg): 60.81%
CLuptake,liver (with DDI/without DDI)% ([4]; i.v. RSV 5 mg/kg): 47.62%
Liver AUC0-5min (with DDI/without DDI)% ([4]; i.v. RSV 5 mg/kg): 115.37%
Liver AUC0-5min/Plasma AUC0-5min (with DDI/without DDI)% ([4]; i.v. RSV 5 mg/kg): 80.23%
Liver Cmax (with DDI/without DDI)% ([4]; i.v. RSV 5 mg/kg): 94.79%
Liver Tmax (with DDI/without DDI)% ([4]; i.v. RSV 5 mg/kg): 86.00%
Plasma AUC0-5min (with DDI/without DDI)% ([4]; i.v. RSV 5 mg/kg): 143.73%
Plasma Cmax (with DDI/without DDI)% ([4]; i.v. RSV 5 mg/kg): 90.18%
Plasma Tmax (with DDI/without DDI)% ([4]; i.v. RSV 5 mg/kg): 116.13%
Bile0-5min [4, 9]: 218.80 ± 138.59 µg
Bile0-5min/Liver AUC0-5min [4, 9]: 1.55 ± 0.98 g/min
Liver AUC0-5min [4, 9]: 141196.71 ± 13631.53 ng·min/g
Liver Cmax [4, 9]: 36840.00 ± 1304.15 ng/g
CLint,bile [4, 9]: 1.80 ± 1.10 g/min
CLuptake,liver [4, 9]: 0.40 ± 0.15 mL/min/g
Bile0-5min ([4]; i.v. RSV 5 mg/kg, without DDI): 257.57 ± 104.42 µg
Bile0-5min/Liver AUC0-5min ([4]; i.v. RSV 5 mg/kg, without DDI): 2.10 ± 0.85 g/min
Liver AUC0-5min ([4]; i.v. RSV 5 mg/kg, without DDI): 122384.16 ± 13075.60 ng·min/g
Liver Cmax ([4]; i.v. RSV 5 mg/kg, without DDI): 38866.67 ± 3503.67 ng/g
CLint,bile ([4]; i.v. RSV 5 mg/kg, without DDI): 2.96 ± 1.50 g/min
CLuptake,liver ([4]; i.v. RSV 5 mg/kg, without DDI): 0.84 ± 0.45 mL/min/g
Decrease of RSV CLint,bile in presence of CP ([4]; i.v. RSV, not significant): 39.19%
Decrease of RSV CLuptake,liver in presence of CP ([4]; i.v. RSV, not significant): 52.38%
Decrease of RSV bile0–5min/liver AUC0–5min in presence of CP ([4]; i.v. RSV, not significant): 26.19%
Decrease of RSV liver AUC0–5min/plasma AUC0–5min in presence of CP ([4]; i.v. RSV, not significant): 19.77%
Increase of RSV AUC with concomitant CP ([5]; 20 mg RSV): 2.0 fold
Increase of RSV Cmax with concomitant CP ([5]; 20 mg RSV): 2.2 fold
Increase of RSV AUC with concomitant CP ([5]; 40 mg RSV): 1.7 fold
Increase of RSV Cmax with concomitant CP ([5]; 40 mg RSV): 1.3 fold
